{"source": "patent US6649631B1", "about": "“Compositions and methods for treating bone deficit conditions” (The Board of Regents of the University of Texas System, priority 1999, dated 2003)", "key": {"BMP2 promoter": {"system": "BMP2 promoter", "assay": "High throughput screening: BMP-2 promoter luciferase reporter in 2T3-BMP-2-LUC cells", "assay_type": "cell-based, mouse", "text": "A rapid throughput screening test for compounds capable of stimulating expression of a reporter gene linked to a BMP promoter (a surrogate for the production of bone morphogenetic factors that are endogenously produced) is described in WO96/38590 published Dec. 5, 1996, the contents of which are incorporated herein by reference. This assay is also described as a portion of a study of immortalized murine osteoblasts (derived from a mouse expressing a transgene composed of a BMP2 promoter driving expression of T-antigen) in Ghosh-Choudhery, N. et al. Endocrinology (1996) 137:331-39. In this study, the immortalized cells were stably transfected with a plasmid containing a luciferase reporter gene driven by a mouse BMP2 promoter (−2736/114 bp), and responded in a dose-dependent manner to recombinant human BMP2.\nBriefly, the assay utilizes cells transformed permanently or transiently with constructs in which the promoter of a bone morphogenetic protein, specifically BMP2 or BMP4, is coupled to a reporter gene, typically luciferase. These transformed cells are then evaluated for the production of the reporter gene product; compounds that activate the BMP promoter will drive production of the reporter protein, which can be readily assayed. Over 40,000 compounds have been subjected to this rapid screening technique, and only a very small percentage are able to elicit a level of production of luciferase 5-fold greater than that produced by vehicle. […] The active compounds (“BMP promoter-active compounds” or “active compounds”) are useful in promoting bone or cartilage growth, and thus in the treatment of vertebrates in need of bone or cartilage growth.\nSeveral tens of thousands of compounds were tested in the assay system set forth in WO 96/38590, published Dec. 5, 1996, and incorporated herein by reference. […]\nThe treated cells were incubated for 24 hours at 37° C. and 5% CO2. […] Luminescence was measured on an automated 96-well luminometer, and was expressed as either picograms of luciferase activity per well or as picograms of luciferase activity per microgram of protein. […]"}, "Swiss white mice": {"system": "Swiss white mice", "assay": "In vivo assay of effects of compounds on murine calvarial bone growth", "set-up": "species or system mouse", "details": "as compared to a vehicle control", "experimental": "Male ICR Swiss white mice, aged 4-6 weeks and weighing 13-26 gm, are employed, using 4-5 mice per group. The calvarial bone growth assay is performed as described in PCT application WO 95/24211. Briefly, the test compound or appropriate control vehicle is injected into the subcutaneous tissue over the right calvaria of normal mice. Typically, the control vehicle is the vehicle in which the compound was solubilized, and is PBS containing 5% DMSO or is PBS containing Tween (2 μl/10 ml). The animals are sacrificed on day 14 and bone growth measured by histomorphometry. Bone samples for quantitation are cleaned from adjacent tissues and fixed in 10% buffered formalin for 24-48 hours, decalcified in 14% EDTA for 1-3 weeks, processed through graded alcohols; and embedded in paraffin wax. Three to five μm sections of the calvaria are prepared, and representative sections are selected for histomorphometric assessment of the effects on bone formation and bone resorption. Sections are measured by using a camera lucida attachment to trace directly the microscopic image onto a digitizing plate. Bone changes are measured on sections cut 200 μm apart, over 4 adjacent 1×1 mm fields on both the injected and noninjected sides of the calvaria. […]\nSimilar results are obtained when new bone width in microns is measured. […]"}, "TMC-23 cells": {"system": "TMC-23 cells", "assay": "Chondrogenic activity: alkaline phosphatase (ALP) activity in TMC-23 cells", "assay_type": "cell-based, mouse", "details": "day 2, 10^−9 M", "protocol": "For measurement of alkaline phosphatase (ALP) activity, the technique of LF Bonewald et al. J. Biol Chem (1992) 267:8943-49, was employed. Briefly, TMC-23 cells were plated in 96 well microtiter plates in DMEM containing 10% FCS at 4×10^3 cells/well. Two days after plating, the cells were confluent and the medium was replaced with fresh medium containing 10% FCS and different concentrations of compounds or recombinant BMP-2. After an additional 2 or 5 days incubation, the plates were washed twice with PBS, and then lysing solution (0.05% Triton X-100) was added (100 μl/well). The cells were lysed by three freeze-thaw cycles of −70° C. (30 min), followed by 37° C. (30 min with shaking). Twenty microliters of cell lysates were assayed with 80 μl of 5 mM p-nitrophenol phosphate in 1.5 M 2-amino-2-methyl-propanol buffer, pH 10.3 (Sigma ALP kit, Sigma Chemical Co., St. Louis, Mo.) for 10 min at 37° C. The reaction was stopped by the addition of 100 μl of 0.5 M NaOH. The spectrophotometric absorbance at 405 nm was compared to that of p-nitrophenol standards to estimate ALP activity in the samples. The protein content of the cell lysates was determined by the Bio-Rad protein assay kit (Bio-Rad, Hercules, Calif.). Specific activity was calculated using these two parameters."}, "neonatal mouse calvaria": {"system": "neonatal mouse calvaria", "assay": "Ex vivo (neonatal mouse) calvarial bone growth assay", "assay_type": "cell-based", "experimental": "This assay is similar to that described by Gowen M. & Mundy G. J Immunol (1986) 136:2478-82. Briefly, four days after birth, the front and parietal bones of ICR Swiss white mouse pups are removed by microdissection and split along the sagittal suture. The bones are incubated in BGJb medium (Irvine Scientific, Santa Ana, Calif.) plus 0.02% (or lower concentration) β-methylcyclodextrin, wherein the medium also contains test or control substances, at 37° C. in a humidified atmosphere of 5% CO2 and 95% air for 96 hours.\nFollowing this, the bones are removed from the incubation media and fixed in 10% buffered formalin for 24-48 hours, decalcified in 14% EDTA for 1 week, processed through graded alcohols; and embedded in paraffin wax. Three μm sections of the calvaria are prepared. Representative sections are selected for histomorphometric assessment of bone formation and bone resorption. Bone changes are measured on sections cut 200 μm apart. Osteoblasts and osteoclasts are identified by their distinctive morphology.\nA number of compounds, in particular, those studied in connection with lead compounds classified as hydrazone/hydrazides (H) exemplified by 59-0045, benzothiazoles (T) exemplified by 59-0104, bis-pyridines (P) exemplified by 59-0145, and quinolines/quinoxalines (Q) exemplified by 59-0197, were tested in the ex vivo calvarial assay described hereinabove.\nThe scores are assigned to bone formation on the ectocranial periosteal surface. The area immediately surrounding midline suture is excluded from analysis.\nIn all samples, toxicity, ectopic new or woven bone formation associated with osteoblasts, and osteoblast size as reflections of relative activity are noted."}, "ovariectomized rats": {"system": "ovariectomized rats", "assay": "Stimulation of bone growth in ovariectomized rats (OVX assay)", "assay_type": "in vivo, rat", "experimental": "Lead compounds also be tested in acute ovariectomized animals (prevention model) using an in vivo dosing assay. Such assays may also include an estrogen-treated group as a control. An exemplary subcutaneous dosing assay is performed as follows:\nIn a typical study, 80 three-month-old female Sprague-Dawley rats are weight-matched and divided into eight groups, with ten animals in each group. This includes a baseline control group of animals sacrificed at the initiation of the study; three control groups (sham ovariectomized (sham OVX)+vehicle only; ovariectomized (OVX)+vehicle only; PBS-treated OVX); and a control OVX group that is administered a compound known to promote bone growth. Three dosage levels of the compound to be tested are administered to the remaining three groups of OVX animals.\nSince ovariectomy (OVX) induces hyperphagia, all OVX animals are pair-fed with sham OVX animals throughout the 35 day study. Briefly, test compound, positive control compound, PBS, or vehicle alone is administered subcutaneously once per day for 35 days. Alternatively, test compound can be formulated in implantable pellets that are implanted for 35 days, or may be administered orally, such as by gastric gavage. All animals, including sham OVX/vehicle and OVX/vehicle groups, are injected intraperitoneally with calcein nine days and two days before sacrifice (two injections of calcein administered each designated day, to ensure proper labeling of newly formed bone). Weekly body weights are determined. At the end of the 35-day cycle, the animals' blood and tissues are processed as described above.\nLead compounds may also be tested in chronic OVX animals (treatment model). An exemplary protocol for treatment of established bone loss in ovariectomized animals that can be used to assess efficacy of anabolic agents may be performed as follows. Briefly, 80 to 100 six month old female, Sprague-Dawley rats are subjected to sham surgery (sham OVX) or ovariectomy (OVX) at time 0, and 10 rats are sacrificed to serve as baseline controls. Body weights are recorded weekly during the experiment. After approximately 6 weeks of bone depletion (42 days), 10 sham OVX and 10 OVX rats are randomly selected for sacrifice as depletion period controls. Of the remaining animals, 10 sham OVX and 10 OVX rats are used as placebo-treated controls. The remaining OVX animals are treated with 3 to 5 doses of test drug for a period of 5 weeks (35 days). As a postitive control, a group of OVX rats can be treated with an agent such as PTH, a known anabolic agent in this model (Kimmel et al. Endocrinology (1993) 132:1577-84). To determine effects on bone formation, the following procedure can be followed. The femurs, tibiae and lumbar vertebrae 1 to 4 are excised and collected. The proximal left and right tibiae are used for pqCT measurements, cancellous bone mineral density (BMD) (gravimetric determination), and histology, while the midshaft of each tibiae is subjected to cortical BMD or histology. The femurs are prepared for pqCT scanning of the midshaft prior to biomechanical testing. With respect to lumbar vertebrae (LV), LV2 are processed for BMD (pqCT may also be performed); LV3 are prepared for undecalcified bone histology; and LV4 are processed for mechanical testing.\nThe compound 59-0145 was tested at various concentrations in the OVX assay conducted as described above. The increase in bone volume was measured by two different groups; one group found 5 μg/kg/day of 59-0145 gave 21% increase over control whereas the second group found a 71% increase. At 50 μg/kg/day, the first group found a 31% increase, and the second a 54% increase.\nIn another experiment, 3 month old Sprague Dawley rats were ovariectomized and depleted for six weeks. At the end of the six weeks, treatment was started with subcutaneous administration of compound 59-0145. The treatment continued for 10 weeks. […]"}}, "data": [{"molecule": "N#Cc1ccc(NCCNc2ccc(C(F)(F)F)cn2)nc1", "note": "[Compound 59-0483]", "values": [{"measurement": "performance in the screening assay relative to 59-0008", "setting": "BMP2 promoter", "result": "better than 59-0008"}]}, {"molecule": "c1ccc(N=NC2=NNc3ccccc3S2)cc1", "note": "[Compound 59-0008, 3-phenylazo-1H-4,1,2-benzothiadiazine]", "values": [{"measurement": "response at maximal activity", "setting": "BMP2 promoter; at about 3 μM", "result": "approximately 175 light emission units"}, {"measurement": "increase in width of new calvarial bone", "setting": "Swiss white mice", "result": 4, "unit": "fold"}, {"measurement": "increase of ALP levels compared to the vehicle control", "setting": "TMC-23 cells", "result": "approximately 3 fold"}]}, {"molecule": "FC(F)(F)c1ccc(NCCNc2ccc(C(F)(F)F)cn2)nc1", "note": "[Compound 59-0145]", "values": [{"measurement": "activity in the ex vivo calvarial assay, in words", "setting": "neonatal mouse calvaria", "result": "consistent moderate activity"}, {"measurement": "increase in bone volume over control", "setting": "ovariectomized rats; 5 μg/kg/day, first group of measurers", "result": 21, "unit": "%"}, {"measurement": "increase in bone volume over control", "setting": "ovariectomized rats; 5 μg/kg/day, second group of measurers", "result": 71, "unit": "%"}, {"measurement": "increase in bone volume over control", "setting": "ovariectomized rats; 50 μg/kg/day, first group of measurers", "result": 31, "unit": "%"}, {"measurement": "increase in bone volume over control", "setting": "ovariectomized rats; 50 μg/kg/day, second group of measurers", "result": 54, "unit": "%"}, {"measurement": "effect on lumbar vertebrae", "setting": "ovariectomized rats; 5 and 50 μg/kg/day, FIG. 10", "result": "beneficial effect"}, {"measurement": "increase in trabecular bone (proximal tibia) compared to placebo-treated group", "setting": "ovariectomized rats; chronic OVX rats, depleted 6 weeks, subcutaneous, 10 weeks of treatment, 50-500 μg/kg/day", "result": "significant increase"}]}, {"molecule": "CN(C)c1ccc(C=Cc2cnc3ccccc3n2)cc1", "note": "[Compound 59-0019]", "values": [{"measurement": "activity in the ex vivo calvarial assay, in words", "setting": "neonatal mouse calvaria", "result": "at least some indication of activity"}]}, {"molecule": "CC(CNc1ccc(C(F)(F)F)cn1)Nc1ccc(C(F)(F)F)cn1", "note": "(centres unmarked) [Compound 59-0459]", "values": [{"measurement": "performance in the screening assay relative to 59-0008", "setting": "BMP2 promoter", "result": "better than 59-0008"}]}, {"molecule": "COc1cc(N(C)C)ccc1C=Cc1ccc2ccccc2n1", "note": "[Compound 59-0150]", "values": [{"measurement": "activity in the ex vivo calvarial assay, in words", "setting": "neonatal mouse calvaria", "result": "activity when measured by one group but not the other"}]}]}
